Reference: patent US20250177581A1, “NTSR1-TARGETED RADIOPHARMACEUTICALS AND DNA DAMAGE RESPONSE INHIBITOR COMBINATION THERAPY” (Fusion Pharmaceuticals Inc., priority 2022, published 2025)

Test system: CT-26-mNTSR1 tumor
Experiment: Combination of [^225Ac]-Compound A and Olaparib in CT-26-mNTSR1 tumor bearing mice, tumor growth
Assay type: in vivo, mouse
Conditions: olaparib monotherapy at 50 mg/kg
Experimental: An in vivo study was conducted to test the effect of [^225Ac]-Compound A (as described in Example 3) in combination with Olaparib in CT-26-mNTSR1 tumor bearing mice.

Q: `O=C(c1cc(Cc2n[nH]c(=O)c3ccccc23)ccc1F)N1CCN(C(=O)C2CC2)CC1` [olaparib] was tested. Which “reduction in tumor growth compared to control mice” value did it give?
A: Its value is “slight or neglible reduction in tumor growth”.
